Data published in paper PMC7011792 (Journal of Enzyme Inhibition and Medicinal Chemistry, 2017).
Like-named read-outs stand apart in the source and are kept apart here.

What was measured:
ICR mice [1] = conditions: for ALT (U/L) / AST (U/L): mice serum, n = 6
Description: The activity of AST and ALT, two indicators of liver damage, was determined using corresponding assay kit (EF551 and EF550 for ALT, EH027, and EF548 for AST, Wako, Japan).
One hour after the collection of retrobulbar blood, mice were sacrificed and livers were harvested for morphological studies by using immunohistochemical method. Two 3 mm sections of each liver extending from the hilus to the margin of the left lateral lobe were isolated by Ultra-Thin Semiautomatic Microtome (Leica RM2245, Germany) and immediately placed in 10% buffered formaldehyde, fixed for two days, and embedded together in one paraffin block by using Paraffin Embedding Station (Leica EG1150H, Germany). Subsequently, 5 µm sections were prepared from these paraffin blocks. They were deparaffinated and stained with hematoxylin and eosin or by means of the periodic acid-Schiff procedure for glycogen.

[2] = biological target: T1, BuChE (EC 3.1.1.8) from horse serum (Equus caballus, UniProt P81908); assay: biochemical; type: biochemical; conditions: BuChE from horse serum; mean ± SEM of three experiments
T1 construct: purchased Sigma-Aldrich C0663; host or cells: equine serum
Description: (§1) AChE (EC 3.1.1.7, Type VI-S, from electric eel, C3389; from human, C1682) and BuChE (EC 3.1.1.8, from equine serum, C0663; from human, B4186), 5,5'-dithiobis (2-nitrobenzoic acid) (DTNB, D218200), acetylthiocholine iodide (ATC, A5751), and butyrylthiocholine iodide (BTC, B3253) were obtained from Sigma-Aldrich (St. Louis, MO).
(§2) The inhibitory effects of the synthesised compounds in this paper were evaluated according to our previously reported method. […] ATC/BTC iodide solution (0.075 M) was prepared in deionised water. […] The assay buffer was prepared as follows: potassium dihydrogen phosphate (1.36 g, 10 mmol) was dissolved in 100 ml of water. The pH of the solution was then adjusted to 8.0 ± 0.1 with KOH. Stock solutions of the test samples were dissolved in ethanol to give a final concentration of 10^−4 M when diluted to the final volume of 3.32 ml. For each compound, a dilution series of at least five different concentrations (normally 10^−5–10^−9 M) were prepared.
(§3) For measurement, a cuvette containing 3.0 ml of phosphate buffer, 100 µL of AChE or BuChE, 100 µL of DTNB, and 100 µL of the test compound solution were added in sequence. The reaction was initiated after adding 20 µL of ATC or BTC, and the solution was mixed immediately. […] For the reference value, 100 µL of water replaced the test compound solution. For the blank control, additionally 100 µL of water replaced the enzyme solution. The measurement for each concentration was assayed in triplicate. GraphPad Prism 5 was used for data processing. The inhibition curve was fitted by plotting percentage enzyme activity (100% for the reference) versus logarithm of test compound concentration. The IC50 values were calculated according to the curve, and the data were shown in mean ± SEM.
(§4) The inhibitory effects on ChEs of all the target compounds were determined according to Ellman’s method. AChE from electrophorus electricus (eeAChE) and BuChE from equine serum (eqBuChE) were used in the assays.

Aβ1–42 = biological target: T2, Aβ1–42 (Homo sapiens, UniProt P05067); assay: Inhibition of self-induced Aβ1–42 aggregation (Thioflavin T assay); type: biochemical; conditions: compound 25 μM, 24 h, read-out: Inhibitory rate on self-induced Aβ1-42 aggregation
T2 construct: aliquots of 2.0 µL of Aβ1–42 (AS-64129–05 Anaspec Inc.); purchased Anaspec Inc. AS-64129–05
Description: Inhibitory effects of the compounds on self-induced Aβ1–42 aggregation were evaluated using a Thioflavin T (ThT)-(T3516, Sigma-Aldrich, St. Louis, MO) binding assay according to the previously reported method. […] The Aβ1–42 and the test sample solutions were incubated for 24 h at the room temperature.
The inhibitory rate of Aβ1–42 self-induced aggregation was calculated according to the following equation: (1-IFi/IFc) × 100%. IFi and IFc were the fluorescence intensities in the presence and absence of inhibitors, respectively, after subtracting the background fluorescence of the 5 mM Thioflavin T solution. Each measurement was repeated in triplicate. The inhibitory rate of the test compound was shown in mean ± SD.

ICR mice [3] = assay: Morris water maze test, scopolamine-induced cognitive impairment; conditions: for Latency to target (second), Day 5 / Latency to target (second), Day 6 / Latency to target (second), Day 7 / Latency to target (second), Day 8 / Latency to target (second), Day 9: learning and training, oral, plus scopolamine; for Latency to target (second), Day 5 / Latency to target (second), Day 6 / Latency to target (second), Day 7 / Latency to target (second), Day 8 / Latency to target (second), Day 9 / Latency to Target: ICR mice; for Latency to Target: probe trial, oral administration plus scopolamine (1 mg/kg ip), mean ± SEM, n = 6; for trajectory in the Morris water maze test: scopolamine-impaired ICR mice, compared to tacrine group
[4] = biological target: T3, AChE (EC 3.1.1.7) from human (Homo sapiens, UniProt P22303); assay: Human AChE inhibition, Ellman's method; type: biochemical; conditions: for IC50: huAChE, mean ± SEM; for Selectivity index (SI) = BuChE IC50/AChE IC50, human enzymes: huBuChE IC50 / huAChE IC50
T3 construct: purchased Sigma-Aldrich C1682
Description: as §1
(§5) The inhibitory effects of the synthesised compounds in this paper were evaluated according to our previously reported method. Briefly, AChE/BuChE stock solution was diluted to give 2.5 units/mL (for eeAChE, eqBuChE, and huAChE) or 0.5 units/mL for huBuChE. ATC/BTC iodide solution (0.075 M) was prepared in deionised water. DTNB solution (0.01 M) was prepared using water containing 0.15% (w/v) sodium bicarbonate. The assay buffer was prepared as follows: potassium dihydrogen phosphate (1.36 g, 10 mmol) was dissolved in 100 ml of water. The pH of the solution was then adjusted to 8.0 ± 0.1 with KOH. Stock solutions of the test samples were dissolved in ethanol to give a final concentration of 10^−4 M when diluted to the final volume of 3.32 ml. For each compound, a dilution series of at least five different concentrations (normally 10^−5–10^−9 M) were prepared.
(§6) For measurement, a cuvette containing 3.0 ml of phosphate buffer, 100 µL of AChE or BuChE, 100 µL of DTNB, and 100 µL of the test compound solution were added in sequence. The reaction was initiated after adding 20 µL of ATC or BTC, and the solution was mixed immediately. Two minutes (eeAChE and eqBuChE) or 15 min (huAChE and huBuChE) after ATC or BTC addition, the absorption was measured at 25 °C (eeAChE and eqBuChE) or 37 °C (huAChE and huBuChE) at 412 nm, using a Shimadzu 160 spectrophotometer. For the reference value, 100 µL of water replaced the test compound solution. For the blank control, additionally 100 µL of water replaced the enzyme solution. The measurement for each concentration was assayed in triplicate. GraphPad Prism 5 was used for data processing. The inhibition curve was fitted by plotting percentage enzyme activity (100% for the reference) versus logarithm of test compound concentration. The IC50 values were calculated according to the curve, and the data were shown in mean ± SEM.

[5] = biological target: T4, BuChE (EC 3.1.1.8) from human (Homo sapiens, UniProt P06276); assay: Human BuChE inhibition, Ellman's method; type: biochemical; conditions: huBuChE; mean ± SEM
T4 construct: purchased Sigma-Aldrich B4186
Description: as §1, §5
as §6, with “The inhibition curve was fitted by plotting percentage enzyme activity (100% for the reference) versus logarithm of test compound concentration.” left out

[6] = biological target: T5, AChE (EC 3.1.1.7) from electric eel (Electrophorus electricus, UniProt O42275); assay: biochemical; conditions: for IC50: AChE from electric eel, mean ± SEM of three experiments; for Selectivity index (SI) = BuChE IC50/AChE IC50: eqBuChE IC50 / eeAChE IC50
T5 construct: purchased Sigma-Aldrich C3389
Description: as §1, §2, §3, §4

[7] = 22 h after ig administration, 151.5 µmol/kg
[8] = 36 h after ig administration, 151.5 µmol/kg

T3 sequence (P22303 32-614): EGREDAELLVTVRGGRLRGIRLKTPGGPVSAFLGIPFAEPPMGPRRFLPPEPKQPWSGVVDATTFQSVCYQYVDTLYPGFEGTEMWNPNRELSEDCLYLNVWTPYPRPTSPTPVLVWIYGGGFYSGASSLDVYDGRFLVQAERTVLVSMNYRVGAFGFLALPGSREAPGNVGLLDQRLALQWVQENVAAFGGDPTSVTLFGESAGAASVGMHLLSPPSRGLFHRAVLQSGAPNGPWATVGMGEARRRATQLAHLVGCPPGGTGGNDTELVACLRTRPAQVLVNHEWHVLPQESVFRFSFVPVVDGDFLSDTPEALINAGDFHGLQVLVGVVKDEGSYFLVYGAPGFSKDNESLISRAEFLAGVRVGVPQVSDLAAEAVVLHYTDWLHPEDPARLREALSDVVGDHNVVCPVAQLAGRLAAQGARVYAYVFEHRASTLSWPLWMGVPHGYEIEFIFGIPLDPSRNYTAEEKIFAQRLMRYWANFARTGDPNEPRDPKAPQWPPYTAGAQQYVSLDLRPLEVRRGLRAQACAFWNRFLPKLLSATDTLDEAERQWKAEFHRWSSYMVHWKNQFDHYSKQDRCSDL
T1 sequence (P81908 whole entry): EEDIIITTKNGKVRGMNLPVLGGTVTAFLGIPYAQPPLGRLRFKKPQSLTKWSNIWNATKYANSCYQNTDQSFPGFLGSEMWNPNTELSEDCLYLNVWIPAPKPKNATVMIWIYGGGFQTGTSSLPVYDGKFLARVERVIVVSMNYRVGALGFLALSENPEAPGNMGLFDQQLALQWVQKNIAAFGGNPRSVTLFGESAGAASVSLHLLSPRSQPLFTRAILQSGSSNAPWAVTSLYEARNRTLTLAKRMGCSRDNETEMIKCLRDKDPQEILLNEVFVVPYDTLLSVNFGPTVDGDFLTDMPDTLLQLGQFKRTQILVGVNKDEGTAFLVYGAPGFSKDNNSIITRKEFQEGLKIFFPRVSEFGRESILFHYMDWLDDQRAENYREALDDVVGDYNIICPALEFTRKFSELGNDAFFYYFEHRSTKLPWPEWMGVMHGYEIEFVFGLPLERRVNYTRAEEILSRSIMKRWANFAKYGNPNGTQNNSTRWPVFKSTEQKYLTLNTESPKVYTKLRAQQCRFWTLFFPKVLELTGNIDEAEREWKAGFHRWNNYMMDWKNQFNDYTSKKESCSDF
T2 sequence (P05067 672-713): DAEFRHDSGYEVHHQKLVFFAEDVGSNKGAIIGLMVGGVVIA
T5 sequence (O42275 24-633): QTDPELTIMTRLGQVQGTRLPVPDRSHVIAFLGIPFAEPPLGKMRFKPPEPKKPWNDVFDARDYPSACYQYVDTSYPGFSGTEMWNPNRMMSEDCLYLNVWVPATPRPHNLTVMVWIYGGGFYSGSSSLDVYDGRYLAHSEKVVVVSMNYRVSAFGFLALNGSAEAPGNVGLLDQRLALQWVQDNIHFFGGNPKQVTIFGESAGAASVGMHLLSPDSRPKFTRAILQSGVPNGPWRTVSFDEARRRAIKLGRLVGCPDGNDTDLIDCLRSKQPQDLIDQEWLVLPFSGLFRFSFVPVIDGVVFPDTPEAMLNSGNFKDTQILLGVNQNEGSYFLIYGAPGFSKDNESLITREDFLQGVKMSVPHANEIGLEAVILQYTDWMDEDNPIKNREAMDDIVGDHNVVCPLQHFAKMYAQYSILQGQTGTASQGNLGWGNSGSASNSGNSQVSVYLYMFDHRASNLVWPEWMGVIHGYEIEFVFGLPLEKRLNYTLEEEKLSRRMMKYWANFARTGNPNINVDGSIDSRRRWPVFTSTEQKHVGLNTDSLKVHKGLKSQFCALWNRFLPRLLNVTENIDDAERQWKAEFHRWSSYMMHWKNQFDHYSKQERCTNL
T4 sequence (P06276 29-602): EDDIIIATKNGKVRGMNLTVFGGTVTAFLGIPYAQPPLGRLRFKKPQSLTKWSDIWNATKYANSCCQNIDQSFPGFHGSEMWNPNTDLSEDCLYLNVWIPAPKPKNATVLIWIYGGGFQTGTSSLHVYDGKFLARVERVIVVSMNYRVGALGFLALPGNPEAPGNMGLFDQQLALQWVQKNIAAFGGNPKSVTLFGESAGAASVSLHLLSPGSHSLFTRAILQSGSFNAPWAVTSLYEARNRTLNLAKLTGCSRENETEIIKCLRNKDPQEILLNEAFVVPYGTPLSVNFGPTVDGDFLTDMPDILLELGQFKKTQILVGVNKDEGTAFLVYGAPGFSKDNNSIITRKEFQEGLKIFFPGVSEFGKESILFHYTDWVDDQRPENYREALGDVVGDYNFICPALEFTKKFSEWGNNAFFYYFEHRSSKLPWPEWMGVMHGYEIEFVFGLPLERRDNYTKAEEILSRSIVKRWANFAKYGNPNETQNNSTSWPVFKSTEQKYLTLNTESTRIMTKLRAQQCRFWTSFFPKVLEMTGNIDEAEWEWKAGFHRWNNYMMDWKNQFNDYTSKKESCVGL

SMILES	morphologic changes in liver (ICR mice [1]; mouse, in vivo)	IC50 [2]	inhibition at 25 µM (Aβ1–42)	Latency to target (second), Day 5 (ICR mice [3])	Latency to target (second), Day 6 (ICR mice [3])	Latency to target (second), Day 7 (ICR mice [3])	Latency to target (second), Day 8 (ICR mice [3])	Latency to target (second), Day 9 (ICR mice [3])	Latency to Target (ICR mice [3])	trajectory in the Morris water maze test (ICR mice [3])	IC50 [4]	Selectivity index (SI) = BuChE IC50/AChE IC50, human enzymes [4]	IC50 [5]	IC50 [6]	Selectivity index (SI) = BuChE IC50/AChE IC50 [6]	further results
O=C(/C=C/c1ccc(Cl)cc1)NCCCCCCNc1c2c(nc3ccccc13)CCCC2 [Compound 27, (E)-3-(4-chlorophenyl)-N-(6-((1,2,3,4-tetrahydroacridin-9-yl)amino)hexyl)acrylamide]	did not cause remarkable morphologic changes in liver	12.9 ± 1.7 nM	42.2%	57.1 ± 6.8 s	41.5 ± 5.0 s	39.2 ± 4.3 s	27.6 ± 2.5 s	28.3 ± 1.7 s	25.6 ± 1.8 s	much shortened distances as compared to tacrine group	16.5 nM	0.3	5.7 nM	6.9 ± 1.2 nM	1.9	
COc1ccc(/C=C/C(=O)NCCCCCCNc2c3c(nc4ccccc24)CCCC3)cc1 [Compound 30, (E)-3-(4-methoxyphenyl)-N-(6-((1,2,3,4-tetrahydroacridin-9-yl)amino)hexyl)acrylamide]	did not cause remarkable morphologic changes in liver	22.5 ± 5.9 nM	34.6%	59.1 ± 7.0 s	47.3 ± 6.6 s	46.4 ± 6.8 s	32.4 ± 5.3 s	33.2 ± 4.0 s	29.4 ± 1.9 s	much shortened distances as compared to tacrine group	15.3 nM	0.5	8 nM	3.7 ± 1.5 nM	6.1	
COc1cc(/C=C/C(=O)NCCCCCCNc2c3c(nc4ccccc24)CCCC3)ccc1OCc1ccc(C)cc1 [Compound 38]		58.4 ± 7.5 nM												128 ± 13.3 nM	0.5	
Oc1ccc(/C=C/c2cc(O)cc(O)c2)cc1 [Resveratrol, reference compound]			30.4%													
Nc1c2c(nc3ccccc13)CCCC2 [Tacrine, reference compound]				69.2 ± 11.0 s	58.3 ± 7.9 s	50.3 ± 6.3 s	37.1 ± 5.1 s	38.2 ± 2.6 s	34.5 ± 1.3 s							ALT (U/L) (ICR mice [1]; 8 h after ig administration, 151.5 µmol/kg (tacrine 30 mg/kg, equimolar test compounds)): 38.0 ± 3.5 U/L; AST (U/L) (ICR mice [1]; 8 h after ig administration, 151.5 µmol/kg): 134.5 ± 9.9 U/L; ALT (U/L) (ICR mice [1]; [7]): 38.7 ± 5.2 U/L; AST (U/L) (ICR mice [1]; [7]): 125.8 ± 16.2 U/L; morphologic changes in liver (ICR mice [1]; 36 h after administration, HE staining, compared to control group): did not cause remarkable morphologic changes in liver; ALT (U/L) (ICR mice [1]; [8]): 40.9 ± 3.5 U/L; AST (U/L) (ICR mice [1]; [8]): 138.7 ± 8.5 U/L
